Experimental data from patent US8637038B2, “Methods for inhibiting allograft rejection” (Rigel Pharmaceuticals, Inc., priority 2011, dated 2014).
“Also recorded” adds a separate entry of the source. Read-outs that look alike come from different tables or passages of the source.

Columns and labels:
[1] = tested on: Lew recipients of heterotopic BN heart transplants; assay: Five-day heart allograft study: donor-specific IgM antibodies by flow cytometry; format: in vivo, rat; settings: LD and HD groups; five days; p<0.001
Experimental: (§1) Compound I and Compound III were provided by Rigel (South San Francisco, Calif.) and Tacrolimus was provided by Astellas (Munich, Germany). All drugs were administrated orally each in two different concentrations: Compound I LD (15 mg/kg BID; n=6) and HD (60 mg/kg BID; n=6); Compound III LD (5 mg/kg BID; n=6) and HD (20 mg/kg BID; n=6); Tac LD (1 mg/kg QD; n=6) and HD (4 mg/kg QD; n=6). Administration of all drugs was performed every day at the same time points. Tacrolimus was applied only once a day (QD) every 24 hours. During administration of Compound I (BID) and Compound III (BID) a 12 hour pause was kept in between each drug application.
(§2) Lew recipients of heterotopic BN heart transplants were randomly assigned to their group. Animals were either left untreated (groups 1 and 2; see Table 1,5-day study) or received their group specific medication (groups 3-8; see Table 1,5-day study) by oral application. An untreated syngeneic transplant group Lew-Lew was generated as control.
Donor splenocytes were isolated and erythrocytes were lysed using the ACK buffer (Lonza, Walkersville, Md.). Sera from recipient rats were decomplemented and equal amounts of sera and splenocyte suspensions (5×10^6 cells/ml) were incubated for 30 minutes at room temperature. IgM antibodies were stained by incubation of the cells with a conjugated mouse antibody specific for the Fc-portion of rat IgM (Monoclonal Anti-rat IGM, Clone RTM-32, Sigma) followed by incubation with a 488-conjugated secondary antibody (Invitrogen). Cells were washed with PBS, fixed with 2% paraformaldehyde (Science Services), and analyzed on a FACSCalibur™ system (BD Biosciences). Fluorescence data were expressed as mean fluorescence intensity (MFI) using Flowjo software (Tree Star, Inc., Ashland, Oreg.).

[2] = tested on: Lew recipients of heterotopic BN heart transplants; assay: Five-day heart allograft study: intragraft cytokines (Quantibody arrays); format: in vivo, rat; settings: HD groups; for intragraft IFN-γ release / intragraft IL-10 release compared to no medication group: five days; for intragraft IFN-γ release / intragraft IL-10 release compared to no medication group / intragraft IL-10 release compared to Tac HD treatment: p<0.05
Experimental: Compound I and Compound III were provided by Rigel (South San Francisco, Calif.) and Tacrolimus was provided by Astellas (Munich, Germany). All drugs were administrated orally each in two different concentrations: Compound I LD (15 mg/kg BID; n=6) and HD (60 mg/kg BID; n=6); […] Administration of all drugs was performed every day at the same time points. Tacrolimus was applied only once a day (QD) every 24 hours. During administration of Compound I (BID) and Compound III (BID) a 12 hour pause was kept in between each drug application. Lew recipients of heterotopic BN heart transplants were randomly assigned to their group. […] An untreated syngeneic transplant group Lew-Lew was generated as control. […] Hearts were equally homogenized in 400 μl RIPA buffer (Sigma-Aldrich, St. Louis, Mo.). The protein content within the supernatant was quantified using the colorimetric BCA protein assay (Thermo Fisher Scientific, Rockford, Ill.) at 562 nm wavelength, according to the manufacturer's protocol. A total of 300 μg protein per Quantibody® array glass chip was used to quantitatively measure the intracellular cytokine content by ELISA in quadruplicates (Human cytokine array 1, Raybiotech). All values were normalized to the standard curve. Glass chip analysis was performed by Raybiotech.

INSR = assay: Insulin HeLa phospho-Akt; format: cell-based; settings: upstream kinase INSR
Experimental: Growth factor-dependent protein phosphorylation was detected in HeLa cells by staining permeabilized cells with phospho-specific antibodies and quantified by chemiluminescence (Luminator, Wallac Multilabel Counter; Perkin Elmer). Akt phosphorylation was measured following insulin stimulation and EGFR phosphorylation was measured following EGF stimulation (Phospho-AKT, Cell signaling technology, Danvers, Mass.; 1 μM Insulin, Millipore, Billerica, Mass.; Phospho-EGFR, tyr1173, clone 53A3, Cell Signaling Technology; 200 ng/ml recombinant human EGF, PeproTech, Hamburg, Germany). Human umbilical vein endothelial cells (HUVECs) were stimulated with VEGF and VEGFR2 phosphorylation was assessed by ELISA (100 ng/ml VEGF165, R&D Systems; Rabbit anti-phospho-VEGFR2 mAb, Cell Signaling Technology).

JAK2/Tyk2 = assay: IL-12 T cell phospho-STAT4; format: cell-based, human; settings: for EC50: Homo sapiens, T-cell, read-out: IL-12 T cell phospho-STAT4 EC50; for inhibition of JAK2/Tyk2-dependent phosphorylation of Stat4 in response to IL-12: human primary T-cells
Experimental: (§3) The activity of Compound III and Compound I was assessed in a panel of cell-based assays. Compound III and Compound I are selective inhibitors of JAK1/3-dependent signaling. Data for a non-selective JAK inhibitor (Compound IV) is shown for reference. Mixed lymphocyte reactions (MLRs) were performed by incubating freshly prepared naive human peripheral blood lymphocytes from one donor with CD80+/CD86+ mature Dendritic Cells derived from a different donor for 5 days. The percentage of CD3+/CD71+ (anti-CD3-APC, Clone HIT3a, anti-CD 71-FITC, Clone M-A712; BD Biosciences, San Jose, Calif.) proliferating cells was assessed by fluorescence-activated cell sorting (FACS; BD Bioscience). Interleukin-2 (IL-2)-dependent human primary T cell proliferation was assessed using CellTiter-Glo® Luminescent Cell Viability Assay (Promega, Madison, Wis.). STAT phosphorylation induced by different cytokines in human primary T cells was measured by intracellular FACS analysis (anti-pY694-STAT5 AlexaFluor488, anti-pY701-STAT1 AlexaFluor488, and anti-pY693-STAT4 AlexaFluor488; BD Biosciences). STAT phosphorylation induced by different cytokines was performed in whole blood after red blood cell lysis (Lyse/Fix buffer, BD Biosciences) and methanol permeabilization. Interferon-γ (IFN-γ) signaling was assessed in the U937 monocytic cell line by measuring ICAM-1 surface expression by FACS (ICAM-1-APC, BD Bioscience).

[3] = tested on: human peripheral blood lymphocytes; assay: Mixed lymphocyte reaction (MLR); format: cell-based
Experimental: as §3

[4] = tested on: Lew recipients of heterotopic BN heart transplants; assay: Five-day heart allograft study: ELISPOT (IFN-γ, IL-4, IL-17) of recipient splenocytes; format: in vivo, rat; settings: for IFN-γ spot frequency (ELISPOT) compared to no medication group: LD groups (Compound I 15 mg/kg BID, Compound III 5 mg/kg BID, Tac 1 mg/kg QD), five days; for suppression of IFN-γ response to donor-specific antigens compared to Tac LD treatment: LD groups
Experimental: as §1, §2
Lymphocytes were isolated from freshly harvested spleens. ELISPOT assays with 1×10^7/ml mitomycin-inhibited BN splenocytes and 1×10^6/ml Lew splenocytes were performed according to the manufacturer's protocol (BD Biosciences). 96-well plates were coated with IFN-γ, IL-17, and IL-4 to assess T helper cell (Th)1-, Th17-, and Th2-responses independently. All assays were performed in quadruplicates. Spots were automatically enumerated using an ELISPOT plate reader (CTL, Cincinnati, Ohio) for scanning and analyzing.

[5] = read-out: EC50, proliferative response of human primary T-cells in the mixed lymphocyte reaction

| Structure (SMILES) | donor-specific IgM antibodies (DSA) vs. no medication [1] | intragraft MCP-1 release compared to Tac HD treatment [2] | intragraft IFN-γ release [2] | intragraft IL-10 release compared to no medication group [2] | intragraft IL-10 release compared to Tac HD treatment [2] | Insulin HeLa phospho-Akt EC50 (INSR) | EC50 (JAK2/Tyk2; upstream kinases JAK2/Tyk2) [nM] | inhibition of JAK2/Tyk2-dependent phosphorylation of Stat4 in response to IL-12 (JAK2/Tyk2) | EC50 ([3]; 120 h, 5 days, CD3+/CD71+ proliferating cells by FACS, read-out: MLR EC50) [nM] | EC50 [3, 5] [nM] | IL-17 cytokine release (ELISPOT) compared to no medication group ([4]; HD 60 mg/kg BID, p<0.010) | IL-17 cytokine release (ELISPOT) compared to no medication group ([4]; LD 15 mg/kg BID, p<0.001) | IL-17 spot frequency compared to Tac LD ([4]; LD 15 mg/kg BID, p<0.001) | IFN-γ spot frequency (ELISPOT) compared to no medication group [4] | suppression of IFN-γ response to donor-specific antigens compared to Tac LD treatment ([4]; p<0.001) | EC50 (JAK2/Tyk2) [nM] | EC50 ([3]; 120 h, read-out: MLR EC50) [nM] | IFN-γ spot frequency compared to Tac HD group ([4]; Compound III LD 5 mg/kg BID, p<0.05) |
| --- | --- | --- | --- | --- | --- | --- | --- | --- | --- | --- | --- | --- | --- | --- | --- | --- | --- | --- |
| COc1cc(Nc2ncc(C)c(Nc3ccc4oc(=O)[nH]c4c3)n2)cc(C)c1F [Compound I, 5-(2-(4-fluoro-3-methoxy-5-methylphenylamino)-5-methylpyrimidin-4-ylamino)benzo[d]oxazol-2(3H)-one] | significant suppression | lower mean values | significantly less; also recorded: significant reduction | significantly reduced; also recorded: significant reduction | significantly less IL-10 release | Inactive | 463 | only weakly inhibited | 16 ± 7 | 16 | significantly suppressed | significantly suppressed | significantly less spot frequency | significantly reduced | significantly better results |  |  |  |
| COc1cc(Nc2ncc(C)c(Nc3ccc4oc(=O)[nH]c4c3)n2)cc(C)c1C [Compound III, 5-(2-(3-methoxy-4,5-dimethylphenylamino)-5-methylpyrimidin-4-ylamino)benzol[d]oxazol-2-(3H)-one] | significant suppression | lower mean values | significantly less; also recorded: significant reduction | significantly reduced; also recorded: significant reduction | significantly less IL-10 release | Inactive |  | only weakly inhibited |  | 22 |  |  |  | significantly reduced | significantly better results | 1560 ± 971 | 22 ± 6 | less IFN-γ spot frequency |
